Series [1] concerns CD8+ T cells of healthy HLA-A*02+ donors. The experiment in a line: In vitro priming of CD8+ T cells with pMHC/anti-CD28 coated beads (high density), tetramer analysis. Format: cell-based, human. The conditions noted are these: for Immunogenicity detected: at least one well with ≥1% specific tetramer+ among CD8+ T-cells and ≥10× median of negative controls; for Positive donors/donors tested / Positive donors/donors tested (%) / Positive wells/wells tested / Positive wells/wells tested (%): high density beads. The method, then:
To perform in vitro stimulations by artificial antigen presenting cells (aAPC) loaded with peptide-MHC complex (pMHC) and anti-CD28 antibody, first PBMCs (peripheral blood mononuclear cells) were isolated from fresh HLA-A*02+ buffy coats by using standard density gradient separation medium (PAA, Cölbe, Germany). Buffy coats were either obtained from the Blood Bank Tübingen or from the Katharinenhospital Stuttgart. Isolated PBMCs were incubated overnight in T-cell medium (TCM) for human in vitro priming consisting of RPMI-Glutamax (Invitrogen, Karlsruhe, Germany) supplemented with 10% heat inactivated human AB serum (PAA, Cölbe, Germany), 100 U/ml Penicillin/100 μg/ml Streptomycin (Cambrex, Verviers, Belgium), 1 mM sodium pyruvate (CC Pro, Neustadt, Germany) and 20 μg/ml Gentamycin (Cambrex). CD8+ lymphocytes were isolated using the CD8+ MACS positive selection kit (Miltenyi, Bergisch Gladbach, Germany) according to the manufacturer's instructions. Obtained CD8+ T-cells were incubated until use in TCM supplemented with 2.5 ng/ml IL-7 (PromoCell, Heidelberg, Germany) and 10 U/ml IL-2 (Chiron, Munich, Gemany). Generation of pMHC/anti-CD28 coated beads, T-cell stimulations and readout was performed as described before (Walter, S, et al., 2003, J. Immunol., 171, 4974-4978) with minor modifications. Briefly, biotinylated recombinant HLA-A*0201 molecules lacking the transmembrane domain and being biotinylated at the carboxy terminus of the heavy chain were produced following a method described by (Altman, J D, et al., 1996, Science, 274, 94-96). The purified costimulatory mouse IgG2a anti human CD28 Ab 9.3 (Jung, G, Ledbetter, J A, and Muller-Eberhard, H J; 1987, Induction of cytotoxicity in resting human T lymphocytes bound to tumor cells by antibody heteroconjugates, Proc Natl Acad Sci USA, 84, 4611-4615) was chemically biotinylated using Sulfo-N-hydroxysuccinimidobiotin as recommended by the manufacturer (Perbio, Bonn, Germany).
800,000 beads/200 μl were coated in 96-well plates in the presence of 600 ng biotin anti-CD28 plus 200 ng relevant biotin-pMHC (high density beads) or 2 ng relevant plus 200 ng irrelevant (pMHC library) MHC (low density beads). Stimulations were initiated in 96-well plates by conincubating 1×10^6 CD8+ T cells with 2×10^5 washed coated beads in 200 μl TCM supplemented with 5 ng/ml IL-12 (PromoCell) for 3-4 days at 37° C. Half of the medium was then exchanged by fresh TCM supplemented with 80 U/ml IL-2 and incubation was continued for 3-4 days at 37° C. This stimulation cycle was performed for a total of three times. Finally, tetrameric analyses were performed with fluorescent MHC tetramers (produced as described by (Altman, J D, et al., 1996, Science, 274, 94-96)) plus antibody CD8-FITC clone SK1 (BD, Heidelberg, Germany) on a four-color FACSCalibur (BD). Peptide specific cells were calculated as percentage of total CD8+ T cells. Evaluation of tetrameric analysis was performed using the software FCS Express (De Novo Software). In vitro priming of specific tetramer+CD8+ lymphocytes was detected by appropriate gating and by comparison to negative control stimulations.
Peptides of the present invention were tested together with peptides of known in vivo immunogenicity for comparison. The CEA-005 peptide that was optimised for in vitro T-cell induction (Fong, L, et al., 2001, J. Immunol., 166, 4254-4259) served as control.
Results of in vitro immunogenicity experiments conducted by immatics are summarised here. Results shown have been obtained by stimulation of CD8+ cells with high density beads. As different human serum lots may highly affect the immunogenicity results, only assays in which one and the same serum lot was used, were evaluated together.

Series [2] can be described thus: Particle size/shape measurement and analytical HPLC of reconstituted IMA910 suspension. The series is classed as physicochemical. The following applies: analytical HPLC of suspension. The method, then: Particle size distribution and particle shape measurement of the particles obtained after reconstitution have been performed by capturing direct images of each individual particle in the range of 0.25 to 100 μm followed by image analysis.
Furthermore, analytical HPLC was performed for a closer characterization of the obtained suspension.
IMA910 is dissolved in 700 μL sodium hydrogen carbonate (4.2%).

In series [3] the test system is monocyte-depleted PBMCs of one healthy donor. In words: In vitro priming with peptide-pulsed autologous DCs, IFNγ ELISPOT read-out. Format: cell-based, human. As to the method: FIG. 6 depicts the in vitro immunogenicity of TGFBI-004 as detected by IFNγ ELISPOT after five stimulation cycles.
Cells were primed and restimulated repeatedly with TGFBI-004 and then incubated with relevant TGFBI-004 (Well 1, 2, 3 and 4) and irrelevant (Neg. control) peptide, respectively. The analysis after IFNγ ELISPOT was performed on an ELISPOT Reader (CTL, Cleveland, USA). PHA-Ionomycin served as positive control. Numbers indicate the count of positive spots.
(§1) Priming and expansion of specific human CD4+ and CD8+ cells were assayed in vitro by priming of monocyte-depleted PBMCs with autologous DCs and restimulation with autologous PBMCs. […] As a read-out system, IFNγ production upon short term restimulation was assessed by ELISPOT and flow cytometry. T cells were analysed after […] stimulations by ELISPOT and intracellular IFNγ staining plus CD4-FITC and CD8-PerCP to determine the percentage of IFNγ-producing cells in specific T-cell subpopulations. In this experiment, cells stimulated with TGFBI-004 peptide from different wells were pooled, incubated with irrelevant peptide for the read-out and performed as negative controls. […]
(§2) To generate CD4+ T cells, 3 Million PBMCs/PBLs were stimulated with 2×10^5 autologuous DCs. […] After being washed with DC medium, cell number was determined. […]

The test system is the same in series [4]. In words: In vitro priming with peptide-pulsed autologous DCs, intracellular IFNγ staining (ICS) read-out. Format: cell-based, human. The method, then: FIGS. 7a and 7b depict the in vitro immunogenicity of TGFBI-004 as detected by ICS after five stimulation cycles.
Cells were primed with TGFBI-004-loaded autologous DCs and restimulated repeatedly with autologous PBMCs plus TGFBI-004. For the read-out cells were incubated with relevant TGFBI-004 (Well 1, 2, 3 and 4) and irrelevant (Neg. Control) peptide, respectively. Additionally to the intracellular IFNγ staining, cells were also stained with CD4-FITC and OCD8-PerCP antibodies. The analysis was performed on a four-color FACSCalibur cytometer (BD Biosciences, Germany).
as §1, §2

Ends that are not written are not given here.

With KLMDLDVEQL [PCN-001], in series [1], the Immunogenicity detected result is “yes”, the Positive donors/donors tested is on record as 3/4, the “Positive donors/donors tested (%)” value is on record as “(75%)” and the Positive wells/wells tested was 4/42. For the same substance, the “Positive wells/wells tested (%)” value in series [1] was “(10%)”.
With “CCN-001: 9 amino acid peptide in vaccine IMA910, supplied as chloride salt (LLGATCMFV; also: chloride salt) [reference compound]”, in series [1], the Immunogenicity detected entry is “yes”, the Positive donors/donors tested is listed as 5/5, the “Positive donors/donors tested (%)” value is “(100%)” and the Positive wells/wells tested is listed as 42/54. Also, the “Positive wells/wells tested (%)” value in series [1] was “(78%)”. For the same substance, the “amount of peptide found in the particles” value in series [2] was “low amounts”.
“KLTDIQIEL (listed as Homo sapiens) [JAK-001]”: the Immunogenicity detected result in series [1] is “yes”.
Take ALSNLEVTL [Peptide C20-001]: in series [1], the Immunogenicity detected entry is “yes”, the Positive donors/donors tested is recorded as 1/5, the “Positive donors/donors tested (%)” value is recorded as “(20%)” and the Positive wells/wells tested is 1/60. The “Positive wells/wells tested (%)” value in series [1] was “(2%)”.
Consider “TPPIDAHTRNLLRNH (listed as Homo sapiens) [TGFBI-004]”, for which the “induction of CD4+ and CD8+ T cell responses” value in series [3] (one donor tested, autologous system) is “able to elicit CD4+ and CD8+ T cell responses”. For the same substance, in series [3] (one healthy donor, IFNγ ELISPOT), the “T-cell lines with T-cell responses detected via ELISPOT” value is on record as 2 out of 4. For the same substance, in series [4], the “T-cell lines with specific IFNγ producing CD4+ and/or CD8+ cells via ICS” value is listed as 3 out of 4.
Regarding “ALTTLMHQL (listed as Homo sapiens) [PTP-001]”, in series [1], the Immunogenicity detected result is “yes”.
On the same count and under the same terms, in the case of “SLWAGVVVL (listed as Homo sapiens) [CHI-001]” it was “yes”.
With KIFDEILVNA [TOP-001], in series [1], the Immunogenicity detected entry is given as “yes”, the Positive donors/donors tested is given as 2/5, the “Positive donors/donors tested (%)” value is recorded as “(40%)” and the Positive wells/wells tested is 7/72. For the same substance, the “Positive wells/wells tested (%)” value in series [1] was “(10%)”. The “amount of peptide found in the particles” value in series [2] was “low amounts”.

For the origin of these results see patent publication US9950048B2, “Immunogenic epitopes for immunotherapy” (immatics biotechnologies GmbH, priority 2007, dated 2018).
